This series can be described thus: Dissolution and solvate precipitation of pyripyropene derivative I in propylene carbonate (Alkylene carbonate A). Format: physicochemical.

We go through one compound from patent US9924712B2, “Liquid concentrate formulation containing a pyripyropene insecticide II” (BASF SE, priority 2012, dated 2018).

SMILES strings stand for the structures.

On to `C[C@]1(COC(=O)C2CC2)[C@@H]2C[C@H](O)[C@@]3(C)Oc4cc(-c5cccnc5)oc(=O)c4[C@H](O)[C@@H]3[C@@]2(C)CC[C@@H]1OC(=O)C1CC1` [pyripyropene derivative I], for which the “Appearance of solution on continued agitation” value (10 wt % and 20 wt % in propylene carbonate, after additional approximately 2 hours of agitation, precipitate crystalline by microscopy) is recorded as “started to turn cloudy”. For the same compound, the “Time for complete dissolution” value (10 wt % and 20 wt % solutions in Alkylene carbonate A (propylene carbonate), with agitation, both cases) is on record as “about 1 hour”.
